The subject of assay [1] is L3.6pl human pancreatic cancer cells. Briefly: Cytotoxicity dose-response (MTS) in L3.6pl cells. It is filed as cell-based. As to conditions: for IC50: Homo sapiens, L3.6pl cells. The protocol: L3.6pl Studies. Compounds 9 and 10 were evaluated in the metastatic human pancreatic cancer cell line, L3.6pl. L3.6pl has a K-ras mutation, and high polyamine uptake activity.^7 A dose-response curve was obtained for each compound in L3.6pl cells to determine the 72 h L3.6pl IC50 value, described as the dose at which L3.6pl cells were 50% viable compared to the untreated control.
Regarding the biological studies performed in the following examples, it is noted that CHO K1, CHO-MG, and L3.6pl cells were grown in RPMI 1640 medium supplemented with 10% fetal bovine serum (FBS) and 1% penicillin/streptomycin. All cells were grown at 37° C. under a humidified 5% CO2 atmosphere. Aminoguanidine (1 mM used for CHO K1 and CHOMG cells and 250 μM for L3.6pl) was added to the growth medium to prevent oxidation of the compounds of the bovine serum amine oxidase enzyme that is present in calf serum. The cells used were in early to mid log phase and CHO and CHOMG were plated out at 1000 cells/well, whereas the L3.6pl cells were plated at 500 cells/well in a 96 well plate format.
This example illustrates aspects according to various embodiments pertaining to IC50 determinations and cell viability studies. Cell growth was assayed in sterile 96-well microtiter plates (Costar 3599, Corning, N.Y.). CHO K1 or CHOMG cells were plated at 1,000 cells/70 μL and L3.6pl cells at 500 cells/70 μL. The drug solutions of appropriate concentration in phosphate buffered saline (PBS) were added 10 μL per well after overnight incubation. After drug exposure (e.g., for 48 h for CHO K1 and CHO-MG and 48 h or 72 h for L3.6pl), cell growth was determined by measuring formazan formation from the 3-(4,5dimethylthiazol-2-yl)-5-(3-carboxymethoxyphenyl)-2-(4-sulfenyl)-2H tetrazolium, inner salt (MTS) using SynergyMx Biotek microplate reader for absorbance (490 nm) measurements.^27 All experiments were run in triplicate.

The test system of another assay is CHO-K1 cells. Briefly: Rescue by exogenous native polyamines in CHO-K1 cells. It is filed as cell-based, Chinese hamster. To be noted: CHO-K1, toxic concentration of compound 10 (results not shown).
A further assay has as its system L3.6pl cells. Briefly: Intracellular polyamine and Ant-44 levels (N-dansylation, HPLC) in L3.6pl cells. It is filed as cell-based, human. To be noted: for Intracellular Putrescine / Intracellular Spermidine / Intracellular Spermine / Intracellular Total Polyamines: 72 hr. The procedure: One explanation for the enhanced potency was that compound 10 (1666.255) increased polyamine import and, as a result, may have increased intracellular Ant-44 levels. To test this hypothesis, L3.6pl cells were dosed with a fixed concentration of Ant-44 (2 μM) alone and in combination with increasing concentrations of compound 10 (1666.255) to explore how this combination therapy affected intracellular polyamine pools and Ant-44 import.
FIG. 7 is an example according to various embodiments, illustrating both single and combination therapies in L3.6pl cells with Ant-44 and compound 10 (1666.255) after 72 h incubation. Polyamine and Ant-44 levels (expressed as nmoles/mg protein) and relative % viability versus an untreated control were observed after 72 h incubation at 37° C. The untreated control was run in parallel and polyamine levels determined in duplicate and % cell viability in triplicate. Ant-44 was dosed at a fixed concentration of 2 μM and compound 10 (1666.255) at increasing concentrations. Cell viability tracked well with total intracellular polyamine levels (sum of putrescine, spermidine and spermine).
It was concluded that compound 10 was neither acting as a PTI nor as a polyamine import agonist. How then could it lead to intracellular polyamine depletion? […] To test this hypothesis, L3.6pl cells were dosed with increasing concentrations of compound 10 (1666.255) without Ant44. If compound 10 (1666.255) was acting on polyamine pools, one should see a reduction in total polyamine levels as well as decreased cell viability in a dose dependent manner upon increasing levels of 10. Therefore, the toxicity of compound 10 and intracellular polyamine levels after 72 h exposure to 10 were measured (FIG. 8).
FIG. 8 is an example according to various embodiments, illustrating intracellular polyamine levels (expressed as nmoles polyamine/mg protein) in L3.6pl cells dosed with increasing concentrations of compound 10 (1666.255) after cells were incubated for 72 h at 37° C. The untreated control was run in parallel and polyamine levels determined in duplicate via N-dansylation and HPLC. The data was averaged and reported as nmol polyamine (PA)/mg protein.
This example illustrates aspects according to various embodiments pertaining to a 72 h experiment with Compound 10 in L3.6pl cells. Ten milliliters of a cell suspension containing L3.6pl human pancreatic cancer cells (50,000 cells/mL) and aminoguanidine (1 mM) were placed in treated plastic Petri dishes (d=9 cm) and incubated overnight at 37° C. After 24 h, the cells were dosed with compound 10 at 2 μM, 5 μM, or 7 μM. (Note: Stock solutions of 10 at 2, 5, and 7 mM were dissolved in phosphate buffered saline (PBS) and were filtered through a 0.2 μm filter prior to use. The experiments were maintained with a total volume of 10.01 mL where 10 mL of the cell suspension was placed in a plastic dish and each compound or the equivalent PBS volume was added to make up the total volume 10.01 mL for each dish. For example, for the control experiment PBS (10 μL) was added to make up the total volume (10 mL+10 μL=10.01 mL). After 72 h incubation, the cells were collected first by pipetting off the supernatant containing floating dead cells from the culture dish as well as media and placing them into 15 mL tubes. The supernatant containing floating cells was centrifuged (4 min at 1,000 rpm). The cell-free supernatant (supernatant #1) was collected into a new 15 mL tube and quantified (˜8.6 mL) and was then stored frozen and was later quantified by LCMS to investigate the media composition of particular polyamine and amino acid analytes. The attached cells on the dish were washed with PBS (5 mL). The PBS wash was removed by suction and additional PBS (2 mL) was added and again suctioned off to provide twice-washed cells still adhered to the dish. Trypsin (2 mL) was then added to each dish and incubated (3-5 min) until all the cells were detached. Fresh media (8 mL) was added to quench the trypsin. […]

Read-outs that look alike come from different tables or passages of the source.

For orientation: IC50 means the concentration that inhibits the measured activity by half. Turning to `CC(C)CCN1CCN(C(CNCc2ccccc2)CC2CCCCC2)CC1CC(C)C.Cl.Cl.Cl` (stereo not drawn) [Compound 10, Benzyl-{3-cyclohexyl-2-[3-isobutyl-4-(3-methyl-butyl)-piperazin-1-yl]-propyl}-amine trihydrochloride salt], the IC50 in assay [1] (48 h, read-out: 48 h IC50) was 3.48 ± 0.3 µM. In addition, the IC50 in assay [1] (72 h, read-out: 72 h IC50) was determined as 5.9 ± 0.2 µM. Besides, the “toxicity of compound alone” value in assay [1] (L3.6pl, second highest concentration tested (1 μM), 72 h) was “nontoxic”. The “toxicity to L3.6pl cancer cells relative to CHO K1 and CHO-MG cell lines” value in assay [1] (from 48 h IC50 values) is given as “approximately three fold more toxic”. For the same molecule, the “rescue of treated cells by native polyamines” value with CHO-K1 cells is given as “unable to rescue”. Further, in the assay on L3.6pl cells (2 μM), the “Intracellular Putrescine” value amounted to 6.2 ± 0.7 nmol polyamine/mg protein, the “Intracellular Spermidine” value stood at 27.1 ± 2.4 nmol polyamine/mg protein, the “Intracellular Spermine” value is on record as 16.1 ± 0.0 nmol polyamine/mg protein and the “Intracellular Total Polyamines” value was 49.5 ± 3.1 nmol polyamine/mg protein. Besides, in the assay on L3.6pl cells (5 μM), the “Intracellular Putrescine” value is 6.0 ± 0.9 nmol polyamine/mg protein, the “Intracellular Spermidine” value is 17.6 ± 1.8 nmol polyamine/mg protein, the “Intracellular Spermine” value came to 14.9 ± 1.1 nmol polyamine/mg protein and the “Intracellular Total Polyamines” value is recorded as 38.5 ± 3.4 nmol polyamine/mg protein. In addition, in the assay with L3.6pl cells (7 μM), the “Intracellular Putrescine” value worked out at 5.9 ± 0.3 nmol polyamine/mg protein, the “Intracellular Spermidine” value came to 15.6 ± 0.1 nmol polyamine/mg protein, the “Intracellular Spermine” value amounted to 12.7 ± 0.6 nmol polyamine/mg protein and the “Intracellular Total Polyamines” value was found to be 34.2 ± 0.9 nmol polyamine/mg protein. Besides, the “intracellular level of Ant-44” value in the assay with L3.6pl cells (Ant-44 2 μM with compound 10 at 1 μM, 72 h) is given as 2.08 nmol Ant44/mg protein.

The record behind these values is patent US20210317090A1, “AMINO ACID DEPLETION AGENTS AS ANTIPROLIFERATIVE AGENTS” (University of Central Florida Research Foundation, Inc., priority 2018, published 2021).
